These compounds were tested against T1, recombinant autotaxin (Homo sapiens, UniProt Q13822) (assay: Autotaxin test (enzyme test), Amplex Red). Conditions: Autotaxin inhibition (enzyme test), TABLE 1 (A compounds); substrate LPC 75 μM.
T1 construct: made in house; host or cells: Hi5 insect cells (baculovirus)
Type: biochemical
Experimental: The autotaxin activity is measured indirectly using Amplex Red reagent. Amplex Red is measured here as fluorogenic indicator for the H2O2 formed. In detail, autotaxin converts the substrate lysophosphatidylcholine (LPC) into phosphocholine and lysophosphatidylic acid (LPA). After this reaction, the phosphocholine is reacted with alkaline phosphatase to give inorganic phosphate and choline. In the next step, choline is oxidised by choline oxidase to give betaine, with formation of H2O2. H2O2 reacts with Amplex Red reagent in the presence of peroxidase (horseradish peroxidase) in a 1:1 stoichiometry and forms the highly fluorescent resorufin. The fluorescence is measured in a reaction-dependent kinetic mode in order that fluorescent signals from possible other fluorescent substances which are not involved in the reaction can be corrected out.
1.5 μl of a standard solution or of the test substances (substances with the name A(n))in individual concentrations dissolved in 20 mM Hepes pH 7.2 with a maximum of 7.7% of DMSO are pre-incubated together with 10 μl (16 ng) of highly purified recombinant autotaxin in a black microtitre plate provided with 384 wells at 22° C. for 30 min. The reaction is then initiated by addition of 5 μl of L-α-lysophosphatidylcholine (LPC), where the final concentration of LPC is 75 μM. The mixture is incubated at 37° C. for 90 min. After the incubation, Amplex Red reagent, peroxidase (horseradish peroxidase) and choline oxidase is added, and the fluorescence is immediately measured at 612 nm with excitation of 485 nm in a “Tecan Ultra multimode” reader. The activity of autotaxin is calculated indirectly via detection of the H2O2 formed.
• Microtitre plate: PS microplate, 384 wells, small volume, black Corning, Cat#3677 • Protein: recombinant autotaxin (Baculovirale Hi5 Expression) • Substrate: L-α-lysophosphatidylcholine (chicken egg)); Avanti Polar Lipids # 830071 P • Standard: C14 LPA, Avanti Polar Lipids, Cat# 857120P • Detection reagent: Amplex Red reagent; Invitrogen # A12222; dissolved in 1.923 ml of DMSO peroxidase type VI-A (horseradish) from Sigma # P6782; dissolved in 7.45 ml of test buffer, choline oxidase; Sigma # C5896; dissolved in 2.47 ml of test buffer • Detection reagent mix: 1:100 dilution of Amplex Red reagent in test buffer • Test buffer: 200 mM Tris HCl, Merck, Cat # 1.08219, pH 7.9, 0.1% of BSA, lipid-free, Roche Cat#775835

| SMILES | IC50 |
| --- | --- |
| COc1ccc(Cl)cc1NC(=O)CN1CCc2nc3ccccc3c(C(=O)N3CCN(C)CC3)c2C1 [Compound A1, N-(5-chloro-2-methoxyphenyl)-2-[10-(4-methylpiperazine-1-carbonyl)-3,4-dihydro-1H-benzo[b][1,6]naphthyridin-2-yl]acetamide] | < 100 nM |
| COc1ccc(Cl)cc1NC(=O)CN1CCc2nc3ccccc3c(C(=O)N3CCOCC3)c2C1 [Compound A7, N-(5-chloro-2-methoxyphenyl)-2-[10-(morpholine-4-carbonyl)-3,4-dihydro-1H-benzo[b][1,6]naphthyridin-2-yl]acetamide] | < 100 nM |
| O=C(CN1CCc2nc3ccccc3c(C(=O)N3CCOCC3)c2C1)Nc1cccc(Cl)c1 [Compound A9, N-(3-Chlorophenyl)-2-[10-(morpholine-4-carbonyl)-3,4-dihydro-1H-benzo-[b][1,6]naphthyridin-2-yl]acetamide] | > 1000 nM |
| COc1ccccc1NC(=O)CN1CCc2nc3ccccc3c(C(=O)N3CCOCC3)c2C1 [Compound A10, N-(2-Methoxyphenyl)-2-[10-(morpholine-4-carbonyl)-3,4-dihydro-1H-benzo-[b][1,6]naphthyridin-2-yl]acetamide] | > 1000 nM |
| Cc1ccc(Cl)cc1NC(=O)CN1CCc2nc3ccccc3c(C(=O)N3CCOCC3)c2C1 [Compound A11, N-(5-Chloro-2-methylphenyl)-2-[10-(morpholine-4-carbonyl)-3,4-dihydro-1H-benzo[b][1,6]naphthyridin-2-yl]acetamide] | > 1000 nM |
| COc1ccc(C)cc1NC(=O)CN1CCc2nc3ccccc3c(C(=O)N3CCOCC3)c2C1 [Compound A12, N-(2-Methoxy-5-methylphenyl)-2-[10-(morpholine-4-carbonyl)-3,4-dihydro-1H-benzo[b][1,6]naphthyridin-2-yl]acetamide] | 100 to 1000 nM |
| COc1ccc(Br)cc1NC(=O)CN1CCc2nc3ccccc3c(C(=O)N3CCOCC3)c2C1 [Compound A13, N-(5-Bromo-2-methoxyphenyl)-2-[10-(morpholine-4-carbonyl)-3,4-dihydro-1H-benzo[b][1,6]naphthyridin-2-yl]acetamide] | < 100 nM |
| COc1ccc(-c2ccccc2)cc1NC(=O)CN1CCc2nc3ccccc3c(C(=O)N3CCOCC3)c2C1 [Compound A14, N-(4-Methoxybiphenyl-3-yl)-2-[10-(morpholine-4-carbonyl)-3,4-dihydro-1H-benzo[b][1,6]naphthyridin-2-yl]acetamide] | 100 to 1000 nM |
| COc1ccc(Cl)cc1NC(=O)CN1CCc2nc3cc(Cl)ccc3c(C(=O)N3CCOCC3)c2C1 [Compound A15, N-(5-Chloro-2-methoxyphenyl)-2-[7-chloro-10-(morpholine-4-carbonyl)-3,4-dihydro-1H-benzo[b][1,6]naphthyridin-2-yl]acetamide] | 100 to 1000 nM |
| COc1ccc(Cl)cc1NC(=O)CN1CCc2nc3c(Cl)cccc3c(C(=O)N3CCOCC3)c2C1 [Compound A16, N-(5-Chloro-2-methoxyphenyl)-2-[6-chloro-10-(morpholine-4-carbonyl)-3,4-dihydro-1H-benzo[b][1,6]naphthyridin-2-yl]acetamide] | 100 to 1000 nM |
| CCc1ccc2c(C(=O)N3CCOCC3)c3c(nc2c1)CCN(CC(=O)Nc1cc(Cl)ccc1OC)C3 [Compound A17, N-(5-Chloro-2-methoxyphenyl)-2-[7-ethyl-10-(morpholine-4-carbonyl)-3,4-dihydro-1H-benzo[b][1,6]naphthyridin-2-yl]acetamide] | 100 to 1000 nM |
| CCN1CCN(C(=O)c2c3c(nc4ccccc24)CCN(CC(=O)Nc2cc(Cl)ccc2OC)C3)CC1 [Compound A23, N-(5-Chloro-2-methoxyphenyl)-2-[10-(4-ethylpiperazine-1-carbonyl)-3,4-dihydro-1H-benzo[b][1,6]naphthyridin-2-yl]acetamide] | < 100 nM |
| COc1ccc(Cl)cc1NC(=O)CN1CCc2nc3ccccc3c(C(=O)N3CCN(C(=O)OCc4ccccc4)CC3)c2C1 [Compound A25, 4-{2-[(5-Chloro-2-methoxyphenylcarbamoyl)methyl]-1,2,3,4-tetrahydrobenzo[b][1,6]naphthyridine-10-carbonyl}piperazine-1-carboxylic acid benzyl ester] | 100 to 1000 nM |
| COc1ccc(Cl)cc1NC(=O)CN1CCc2nc3ccccc3c(C(=O)N3CCCN(Cc4ccccc4)CC3)c2C1 [Compound A26, 2-[10-(4-Benzyl-1,4-diazepan-1-carbonyl)-3,4-dihydro-1H-benzo[b][1,6]-naphthyridin-2-yl]-N-(5-chloro-2-methoxyphenyl)acetamide] | 100 to 1000 nM |
| COc1ccc(Cl)cc1NC(=O)CN1CCc2nc3ccccc3c(C(=O)N3CCNCC3)c2C1 [Compound A27, N-(5-chloro-2-methoxyphenyl)-2-[10-(piperazine-1-carbonyl)-3,4-dihydro-1H-benzo[b][1,6]naphthyridin-2-yl]acetamide] | 100 to 1000 nM |
| COc1ccc(Cl)cc1NC(=O)CN1CCc2nc3ccccc3c(C(=O)N3CCN(C4CCCC4)CC3)c2C1 [Compound A28, N-(5-Chloro-2-methoxyphenyl)-2-[10-(4-cyclopentylpiperazine-1-carbonyl)-3,4-dihydro-1H-benzo[b][1,6]naphthyridin-2-yl]acetamide] | 100 to 1000 nM |
| CCCN1CCN(C(=O)c2c3c(nc4ccccc24)CCN(CC(=O)Nc2cc(Cl)ccc2OC)C3)CC1 [Compound A29, N-(5-Chloro-2-methoxyphenyl)-2-[10-(4-propylpiperazine-1-carbonyl)-3,4-dihydro-1H-benzo[b][1,6]naphthyridin-2-yl]acetamide] | < 100 nM |
| COc1ccc(Cl)cc1NC(=O)CN1CCc2nc3ccccc3c(C(=O)N3CCN(Cc4ccccc4)CC3)c2C1 [Compound A30, 2-[10-(4-Benzylpiperazine-1-carbonyl)-3,4-dihydro-1H-benzo[b][1,6]naphthyridin-2-yl]-N-(5-chloro-2-methoxyphenyl)acetamide] | 100 to 1000 nM |
| CN1CCN(C(=O)c2c3c(nc4ccccc24)CCN(C(=O)CCc2ccc(Cl)cc2Cl)C3)CC1 [Compound A31, 3-(2,4-dichlorophenyl)-1-[10-(4-methylpiperazine-1-carbonyl)-3,4-dihydro-1H-benzo[b][1,6]naphthyridin-2-yl]propan-1-one] | > 1000 nM |
| CN1CCN(C(=O)c2c3c(nc4ccccc24)CCN(C(=O)CCc2ccc(Cl)cc2F)C3)CC1 [Compound A33, 3-(4-Chloro-2-fluorophenyl)-1-[10-(4-methylpiperazine-1-carbonyl)-3,4-dihydro-1H-benzo[b][1,6]naphthyridin-2-yl]propan-1-one] | > 1000 nM |
| COc1ccc(Cl)cc1NC(=O)CN1CCc2nc3c(Br)cccc3c(C(=O)N3CCOCC3)c2C1 [Compound A40, 2-[6-Bromo-10-(morpholine-4-carbonyl)-3,4-dihydro-1H-benzo[b][1,6]naphthyridin-2-yl]-N-(5-chloro-2-methoxyphenyl)acetamide] | 100 to 1000 nM |
| CCOc1ccc(Cl)cc1NC(=O)CN1CCc2nc3ccccc3c(C(=O)N3CCOCC3)c2C1 [Compound A41, N-(5-Chloro-2-ethoxyphenyl)-2-[10-(morpholine-4-carbonyl)-3,4-dihydro-1H-benzo[b][1,6]naphthyridin-2-yl]acetamide] | > 1000 nM |
| COc1ccc(Cl)cc1NC(=O)CN1CCc2nc3cc(Br)ccc3c(C(=O)N3CCOCC3)c2C1 [Compound A42, 2-[7-Bromo-10-(morpholine-4-carbonyl)-3,4-dihydro-1H-benzo[b][1,6]-naphthyridin-2-yl]-N-(5-chloro-2-methoxyphenyl)acetamide] | 100 to 1000 nM |
| O=C(CN1CCc2nc3ccccc3c(C(=O)N3CCOCC3)c2C1)Nc1cc(Br)cc2ccoc12 [Compound A43, N-(5-Bromobenzofuran-7-yl)-2-[10-(morpholine-4-carbonyl)-3,4-dihydro-1H-benzo[b][1,6]naphthyridin-2-yl]acetamide] | 100 to 1000 nM |
| O=C(CN1CCc2nc3ccccc3c(C(=O)N3CCOCC3)c2C1)Nc1cccc2ccoc12 [Compound A45, N-Benzofuran-7-yl-2-[10-(morpholine-4-carbonyl)-3,4-dihydro-1H-benzo-[b][1,6]naphthyridin-2-yl]acetamide] | > 1000 nM |
| O=C(CN1CCc2nc3ccccc3c(C(=O)N3CCOCC3)c2C1)Nc1cc(Cl)cc2ccoc12 [Compound A48, N-(5-Chlorobenzofuran-7-yl)-2-[10-(morpholine-4-carbonyl)-3,4-dihydro-1H-benzo[b][1,6]naphthyridin-2-yl]acetamide] | 100 to 1000 nM |

Reference: patent US20110230471A1, “BENZONAPHTYRIDINE COMPOUNDS AS INHIBITORS OF AUTOTAXIN” (MERCK PATENT GESELLSCHAFT MIT BESCHRANKTER HAFTUNG, priority 2008, published 2011)
